EP1892243A1, “Polymorphic forms of ziprasidone sulphate salts” (KRKA, tovarna zdravil, d.d., Novo mesto, priority 2006, dated 2008)
Counter-ions that a name gives are not always drawn.

Legend:
Water-sorption analysis = format: physicochemical; settings: for release of crystal water: at 0 % RH, nitrogen flow 200 ml/min; for release of crystal water / water sorption started at: 25°C; for water sorption started at: cycles from 0 % RH to 95 % RH
Method: An amount of 20 mg of zipasidone hydrogensulphate dihydrate was exposed to a water-sorption analysis (Surface Measurement Systems Ltd., London, UK; two complete 11-step circles from 0 % RH to 95 % RH at the temperature 25°C and nitrogen flow rate 200 ml/min; minimal retention time at the step when dm/dt < 0.002% is 10 minutes and maximal 360 minutes) and compared to the same test of Ziprasidone hydrochloride monohydrate.

[1] = Particle size by laser light scattering; format: physicochemical; settings: drug substance used in the compositions of Example 12
Method: The average particle size is determined by laser light scattering using a Malvern-Mastersizer Apparatus MS 2000. The particles to be subjected to the particle size measurement are first suspended in isoparafinic oil (Isopar®) and then subjected to a size determination in a Malvern Mastersizer MS 2000 instrument. Usually, 100-800 mg of substance is dispersed in 5-8 ml of […]. According to manufacturer's information, the Malvern Mastersizers allow for a measurement of particle size distributions in the range of 20 nm to 2000 µm, with a precision of better than 0.5%. Particle sizes are determined by measuring the angular distribution of laser light scattered by a homogeneous suspension of particles. The size distribution is determined from the light scattering data using the theory of light scattering developed by Gustav Mie.

[2] = 2 weeks

Row | SMILES | release of crystal water (Water-sorption analysis) | water sorption started at (Water-sorption analysis) [% RH] | stability to hydratation (Water-sorption analysis; compared with Ziprasidone hydrochloride salt) | Particle size [1] [µm] | HPLC purity of Ziprasidone after two-week stability test [2] [%]
1 | O=C1Cc2cc(CCN3CCN(c4nsc5ccccc45)CC3)c(Cl)cc2N1 [Ziprasidone hydrochloride monohydrate, reference compound] | release crystal water | 30 |  |  | 
2 | O.O.O=C1Cc2cc(CCN3CCN(c4nsc5ccccc45)CC3)c(Cl)cc2N1.O=S(=O)(O)O [Ziprasidone hydrogensulphate dihydrate, 5-[2-[4-(1,2-benzisothiazol-3-yl)-1-piperazinyl]ethyl]-6-chloro-1,3-dihydro-2H-indol-2-one hydrogensulphate dihydrate] | does not release crystal water | 50 | more stable to hydratation | 26 | 99.7
